Test systems include SK-MEL-2 melanoma; OVCAR-3 ovarian; OVCAR-4 ovarian; KM12 colon; UACC-62 melanoma; CAKI-1 renal; A549 NSCLC; DU-145 prostate; PC-3 prostate; MDA-MB-435.
Test in all cases: growth of human tumour cells (NCI), 48 h

Molecules are shown by their SMILES.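 All cell lines were grown in 96-well plates and treated with compound for 48 hours. Abbreviation: GI50, concentration required for 50% inhibition of growth. TGI: concentration producing complete growth inhibition.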

For `CN1C(=O)CN2C(Cl)(Cl)C2(c2ccccc2F)c2cc([N+](=O)[O-])ccc21` (stereo not drawn), the TGI with SK-MEL-2 melanoma, with OVCAR-3 ovarian, in the test with OVCAR-4 ovarian, in the test on KM12 colon, in the test on UACC-62 melanoma and with CAKI-1 renal was greater than 100 µM each time.
`CC(C)OC(=O)Nc1cccc(Cl)c1`: the TGI with SK-MEL-2 melanoma, with OVCAR-3 ovarian, in the test with OVCAR-4 ovarian, in the test with KM12 colon, with A549 NSCLC and with UACC-62 melanoma was greater than 100 µM throughout. Besides, the TGI in the test on DU-145 prostate, in the test with PC-3 prostate, with MDA-MB-435 and in the test with CAKI-1 renal was greater than 100 µM in each case.
As for `COc1ccc(CC2c3cc(OC)c(OC)c(OC)c3CC[N+]2(C)C)cc1Oc1ccc(CC2c3cc4c(c(OC)c3CC[N+]2(C)C)OCO4)cc1` (stereo not drawn), the TGI with SK-MEL-2 melanoma, in the test with OVCAR-4 ovarian, with KM12 colon, with A549 NSCLC, in the test on UACC-62 melanoma and in the test on DU-145 prostate was greater than 100 µM in each case. The TGI with PC-3 prostate, in the test on MDA-MB-435 and in the test with CAKI-1 renal was greater than 100 µM each time.
Take `Nc1nc(Cl)cc(NCCCNc2cc(Cl)nc(N)n2)n1`: the TGI with SK-MEL-2 melanoma, in the test with OVCAR-3 ovarian, in the test with OVCAR-4 ovarian, in the test with KM12 colon, in the test on A549 NSCLC and in the test on UACC-62 melanoma was greater than 100 µM each time.
Consider `Cn1cc(-c2csc(-c3cn(C)c4ccc(Br)cc34)n2)c2cnccc21`, for which the GI50 in the test on SK-MEL-2 melanoma is 1.93 µM; with OVCAR-3 ovarian it was 1.89 µM; in the test on OVCAR-4 ovarian it was 1.68 µM; in the test on KM12 colon, 1.97 µM; in the test with A549 NSCLC, 1.83 µM; in the test on UACC-62 melanoma, 1.72 µM. Also, the GI50 in the test with DU-145 prostate was 1.74 µM; with PC-3 prostate, 1.55 µM; in the test on MDA-MB-435 it was 1.76 µM; with CAKI-1 renal, 1.77 µM. The TGI was 3.76 µM in the test on SK-MEL-2 melanoma; 3.49 µM in the test with OVCAR-3 ovarian; 3.15 µM with OVCAR-4 ovarian; 3.69 µM in the test with KM12 colon; 3.48 µM with A549 NSCLC; 3.21 µM in the test on UACC-62 melanoma. The TGI with DU-145 prostate was 3.17 µM; in the test with PC-3 prostate, 3.02 µM; in the test with MDA-MB-435 it was 3.22 µM; in the test with CAKI-1 renal, 3.22 µM.
`CC(N)C(=O)OCN1C(=O)C2C3C=CC(C2C1=O)C1C2C(=O)N(COC(=O)C(C)N)C(=O)C2C31` (stereo not drawn): the TGI worked out at 39 µM in the test with SK-MEL-2 melanoma; 91.5 µM in the test on OVCAR-3 ovarian; 40.9 µM with OVCAR-4 ovarian; 41.6 µM with KM12 colon; 77.7 µM with A549 NSCLC; 49 µM with UACC-62 melanoma. The same compound came in with a TGI in the test with CAKI-1 renal greater than 100 µM.
As to `NC(=O)c1ccc(NS(=O)(=O)c2ccc(N)cc2)nc1`, the TGI in the test on SK-MEL-2 melanoma, with OVCAR-3 ovarian, in the test with OVCAR-4 ovarian, in the test with KM12 colon, in the test with UACC-62 melanoma and with DU-145 prostate was greater than 100 µM each time. In addition, the TGI with PC-3 prostate, in the test with MDA-MB-435 and in the test with CAKI-1 renal was greater than 100 µM throughout.
As to `COC(=O)C(=O)C(C(=O)C1=NS(=O)(=O)c2cc(S(N)(=O)=O)c(Cl)cc2N1)c1nc2ccc(C(=O)c3ccccc3)cc2[nH]c1=O` (stereo not drawn), the TGI in the test with SK-MEL-2 melanoma, with OVCAR-4 ovarian, with KM12 colon, in the test with A549 NSCLC, in the test with UACC-62 melanoma and in the test on CAKI-1 renal was greater than 100 µM in each case.
On to `Cc1cccc(O)c1-c1nnc(CCCCCCCCc2nnc(-c3c(C)cccc3O)n2N)n1N`, for which the TGI was greater than 83.3 µM with SK-MEL-2 melanoma; greater than 100 µM in the test with OVCAR-3 ovarian; greater than 56.1 µM in the test with OVCAR-4 ovarian; greater than 100 µM in the test on KM12 colon; greater than 100 µM with A549 NSCLC; greater than 100 µM in the test with UACC-62 melanoma. For the same compound, the TGI in the test on DU-145 prostate, in the test on PC-3 prostate, in the test on MDA-MB-435 and in the test with CAKI-1 renal was greater than 100 µM in each case.
Take `Cc1ccc(S(=O)(=O)N2c3ccccc3[C@H]3CCc4c([nH]c5ccccc45)[C@H]32)cc1`: the TGI in the test with SK-MEL-2 melanoma, in the test on OVCAR-3 ovarian, with OVCAR-4 ovarian, with KM12 colon, in the test with A549 NSCLC and in the test with UACC-62 melanoma was greater than 100 µM in each case. The TGI with DU-145 prostate, in the test on PC-3 prostate, with MDA-MB-435 and with CAKI-1 renal was greater than 100 µM in each case.
Turning to `c1ccc(CSC2(SCc3ccccc3)CCCC2)cc1`, the TGI in the test on SK-MEL-2 melanoma, with OVCAR-3 ovarian, in the test on OVCAR-4 ovarian, with KM12 colon, with A549 NSCLC and in the test on UACC-62 melanoma was greater than 10 µM each time. Moreover, the TGI in the test on DU-145 prostate, in the test on PC-3 prostate, in the test with MDA-MB-435 and with CAKI-1 renal was greater than 10 µM throughout.

Values taken from PubChem BioAssay (NCI).
